Assay results published in US4350700A, “Pharmaceutical composition containing 1,3,5-substituted biuret compound” (Taiho Pharmaceutical Company, Limited, priority 1979, dated 1982).
Where two headings read alike, the source gives them in different places.

What was measured:
ddy strain of male mice = assay: Acute toxicity (oral, general symptom and death observed for 7 days); type: in vivo; details: 7 days
Protocol: (§1) Next, several tests for determining the pharmacological properties, in that acute toxicity, anti-pyretic activity, analgesic activity and anti-inflammatory activity of the present 1,3,5-substituted biuret compounds of the formula (1) were conducted and the test results are shown in Table (2). In the tests, each compounds to be tested was used as a suspension in 0.25% carboxymethylcellulose solution. Methods for testing are explained as follows:
The ddy strain of male mice (body weight, 20-25 g) were used as test animals. The mice were fasted overnight and the compound to be tested was administered orally. […] The lethal dose (mg/kg, body weight) of the test compound was determined in connection with the death number of mice/the number of mice tested. In Table 2, the values indicated with Δ marks are 50% lethal dose, LD50 (mg/kg, body weight).

[1] = test system: pain reaction of the mouse caused by a clamp; assay: Analgesic activity, Haffner method; type: in vivo, mice (ddy strain, male); details: for Analgesic activity, Haffner method, inhibitory ratio: mice
Protocol: as §1
According to the modified method reported by Fujimura et al., [Bulletin of the Institute for Chemical Research, Kyoto University, No. 25, pp. 36 (1951)], the ddy strain of male mice (body weight, 20-25 g) were used as test animals. The mice were fasted overnight, 100 mg/kg body weight of the test compound was administered orally, then 45 minutes after the administration, the threshhold amount (1.5-2.5 mg/kg body weight) of morphine hydrochloride was injected subcutaneously. Then 1-hour pain reaction of the mouse caused by a clamp was observed. Analgesic activity of the test compound was calculated as the inhibitory ratio (%). In Table 2, the values in parentheses show the data obtained from the test by using the dosage other than 100 mg/kg body weight. Further, the values indicated with Δ marks show 50% effective dose, ED50 (mg/kg body weight).

[2] = test system: acetic acid-induced stretching symptom of mouse; assay: Analgesic activity, acetic acid-induced stretching method; type: in vivo, mice (ddy strain, male); details: for inhibition in vivo at 100 mg/kg / inhibition in vivo at 200 mg/kg: read-out: Analgesic activity, acetic acid-induced stretching method, inhibitory ratio
Protocol: as §1
(1) Acetic acid-induced stretching method
According to the method reported by Koster et.al., [Fed. Proc., Vol. 18, pp. 412 (1959)], the ddy strain of male mice (body weight, 20-25 g) were used as test animals. The mice were fasted overnight, 100 mg/kg body weight of the test compound was administered orally, then 1 hour after the administration, 0.2 ml of 0.7% acetic acid solution was injected intraperitoneally. The acetic acid-induced stretching symptom of mouse was observed. Analgesic activity of the test compound was calculated as the inhibitory ratio (%). In Table 2, the values in parentheses show the data obtained from the test by using the dosage other than 100 mg/kg body weight. Further, the values indicated with Δ marks show 50% effective dose, ED50 (mg/kg body weight).

[3] = test system: carrageenin-induced inflammation of the hindpaw of the rat; assay: Anti-inflammatory activity, acute carrageenin-induced inflammatory test; type: in vivo, rats (Wistar strain, male); details: Rattus norvegicus, read-out: Anti-inflammatory activity, inflammation inhibitory ratio; for inhibition in vivo at 200 mg/kg: 200 mg/kg oral
Protocol: as §1
4. Anti-inflammatory Activity
According to the method of acute carrageenin-induced inflammatory test [Folia Pharmacologia Japonica, Vol. 56, pp. 575 (1960)], the Wistar strain of male rats (body weight, 150-180 g) were used as test animals. The rats were fasted overnight, 100 mg/kg body weight of the test compound was administered orally, then 1 hour after the administration, 0.1 ml of 1% carrageenin solution, as the inflammation inducing agent, was injected subcutaneously to the hindpaw of the rat and the volume of the hindpaw was measured at time sequences. Anti-inflammatory activity of the test compound was calculated as inflammation inhibitory ratio (%) at 3 hours after the injection of inflammation inducing agent.

[4] = 100 mg/kg oral, rats, 3 hours after carrageenin
[5] = rats, 3 hours after carrageenin

| SMILES | Acute toxicity, death number of mice/number of mice tested (ddy strain of male mice; 1000 mg/kg oral) | Acute toxicity, death number of mice/number of mice tested (ddy strain of male mice; 2000 mg/kg oral) | Analgesic activity, Haffner method, inhibitory ratio ([1]; 100 mg/kg oral) | inhibition in vivo at 100 mg/kg ([2]; po) | further results |
| --- | --- | --- | --- | --- | --- |
| CNC(=O)N(C)C(=O)NCc1ccccn1 [compound 13, 1,3-Dimethyl-5-(2-pyridylmethyl)biuret] | 0/4 | 2/4 | 37.5% |  | inhibition in vivo at 100 mg/kg ([2]; 100 mg/kg oral, mice): 25% |
| CNC(=O)N(C(=O)Nc1ccccc1)c1ccccc1 [Compound No. 22, 1-methyl-3,5-diphenylbiuret] |  | 0/4 |  | 37.5% | inhibition in vivo at 100 mg/kg [3, 4]: 35%; Analgesic activity, Haffner method, inhibitory ratio ([1]; 200 mg/kg oral): 50% |
| CCNC(=O)NC(=O)Nc1ccccn1 [compound 30, 1-Ethyl-5-(2-pyridyl)biuret] | 0/4 | 3/4 | 37.5% |  | inhibition in vivo at 100 mg/kg ([3]; po, 3 h): 30% |
| CCNC(=O)N(C)C(=O)Nc1ccc(O)cc1 [compound 34, 1-Ethyl-3-methyl-5-(4-hydroxyphenyl)biuret] |  | 0/4 | 12.5% |  | inhibition in vivo at 100 mg/kg [3, 4]: 19%; inhibition in vivo at 100 mg/kg ([2]; 100 mg/kg oral, mice): 25% |
| CNC(=O)NC(=O)Nc1ccccc1 [Compound No. 2] | 4/4 |  | 50% | 75% | Acute toxicity, death number of mice/number of mice tested (ddy strain of male mice; 500 mg/kg oral): 0/4; inhibition in vivo at 100 mg/kg ([3]; po, 3 h): 28% |
| CCCCNC(=O)NC(=O)Nc1ccccc1 [compound 46] |  | 0/4 |  |  | inhibition in vivo at 200 mg/kg [3, 5]: 84%; Analgesic activity, Haffner method, inhibitory ratio ([1]; 200 mg/kg oral): 25% |
| CCNC(=O)NC(=O)Nc1cccc(Cl)c1 [compound 25, 1-Ethyl-5-(3-chlorophenyl)biuret] |  | 0/4 |  |  | inhibition in vivo at 200 mg/kg [3, 5]: 86%; Analgesic activity, Haffner method, inhibitory ratio ([1]; 200 mg/kg oral): 37.5%; inhibition in vivo at 200 mg/kg ([2]; 200 mg/kg oral, mice): 25% |
| CNC(=O)N(C)C(=O)NCc1ccccc1 [compound 12] | 4/4 |  | 50% |  | Acute toxicity, death number of mice/number of mice tested (ddy strain of male mice; 500 mg/kg oral): 0/4; inhibition in vivo at 100 mg/kg ([3]; po, 3 h): 47%; inhibition in vivo at 100 mg/kg ([2]; 100 mg/kg oral, mice): 100% |
| CCNC(=O)NC(=O)Nc1ccc(Cl)cc1 [compound 26] |  | 0/4 |  |  | inhibition in vivo at 200 mg/kg [3, 5]: 76%; Analgesic activity, Haffner method, inhibitory ratio ([1]; 200 mg/kg oral): 25%; inhibition in vivo at 200 mg/kg ([2]; po): 12.5% |
| CCCNC(=O)NC(=O)NCc1ccccc1 [compound 42] |  | 0/4 |  |  | inhibition in vivo at 200 mg/kg [3, 5]: 31%; Analgesic activity, Haffner method, inhibitory ratio ([1]; 200 mg/kg oral): 50%; inhibition in vivo at 200 mg/kg ([2]; 200 mg/kg oral, mice): 82.5% |
| CCNC(=O)NC(=O)Nc1ccccc1Cl [compound 24, 1-Ethyl-5-(2-chlorophenyl)biuret] |  | 0/4 |  |  | inhibition in vivo at 200 mg/kg [3, 5]: 77%; Analgesic activity, Haffner method, inhibitory ratio ([1]; 200 mg/kg oral): 37.5%; inhibition in vivo at 200 mg/kg ([2]; 200 mg/kg oral, mice): 25% |
| CCCCNC(=O)NC(=O)NCc1ccccc1 [compound 48] |  | 0/4 |  |  | inhibition in vivo at 200 mg/kg [3, 5]: 46%; ED50 ([1]; Mus musculus, oral, mice (Δ values; range in parentheses), read-out: Analgesic activity, Haffner method, 50% effective dose ED50): 110 mg/kg; ED50 ([2]; oral, mice (Δ values; range in parentheses), read-out: Analgesic activity, acetic acid-induced stretching method, 50% effective dose ED50): 111 mg/kg |
| CN(C(=O)NO)C(=O)Nc1ccccc1 [compound 62, 1-Hydroxy-3-methyl-5-phenylbiuret] | 0/4 | 1/4 | 25% |  |  |
| CCNC(=O)NC(=O)NCc1ccccc1 [compound 29, 1-Ethyl-5-benzylbiuret] | 0/4 | 1/4 | 25% | 12.5% | inhibition in vivo at 100 mg/kg [3, 4]: 31% |
| CCNC(=O)NC(=O)Nc1ccccc1 [Compound No. 23, 1-ethyl-5-phenylbiuret] |  | 0/4 |  | 62.5% | inhibition in vivo at 100 mg/kg [3, 4]: 49%; Analgesic activity, Haffner method, inhibitory ratio ([1]; 200 mg/kg oral): 60% |
| CN(C(=O)Nc1ccccc1)C(=O)Nc1ccccc1 [compound 64] |  | 0/4 |  | 37.5% | Analgesic activity, Haffner method, inhibitory ratio ([1]; 200 mg/kg oral): 12.5% |
| CN(C(=O)NCC(C)(C)O)C(=O)Nc1ccccc1 [Compound No. 57, 1-(2-Methyl-2-hydroxypropyl)-3-methyl-5-phenylbiuret] | 0/4 | 2/4 | 50% |  | inhibition in vivo at 100 mg/kg ([2]; 100 mg/kg oral, mice): 100% |
| CN(C(N)=O)C(=O)Nc1ccccc1 [Compound No. 1] |  | 2/4 |  | 37.5% |  |
| CONC(=O)N(C)C(=O)Nc1ccccc1 [compound 63, 1-Methoxy-3-methyl-5-phenylbiuret] | 0/4 | 4/4 | 25% | 50% | inhibition in vivo at 100 mg/kg ([3]; po, 3 h): 50% |
| CNC(=O)N(C)C(=O)Nc1ccccc1C(=O)O [compound 10, 1,3-Dimethyl-5-(2-carboxyphenyl)biuret] | 1/4 | 4/4 |  | 12.5% |  |
| CC(=O)NC(=O)N(C)C(=O)Nc1ccccc1 [compound 61, 1-Acetyl-3-methyl-5-phenylbiuret] |  | 0/4 | 12.5% | 50% |  |
| CN(C(=O)NCCCl)C(=O)Nc1ccccc1 [compound 53, 1-(2-Chloroethyl)-3-methyl-5-phenylbiuret] |  | 0/4 | 25% | 12.5% | inhibition in vivo at 100 mg/kg ([3]; po, 3 h): 40% |
| CCN(C(=O)NC)C(=O)Nc1ccccc1 [Compound No. 21, 1-Methyl-3-ethyl-5-phenylbiuret] | 1/4 | 3/4 | 37.5% | 50% | inhibition in vivo at 100 mg/kg [3, 4]: 56% |
| COCCNC(=O)N(C)C(=O)Nc1ccccc1 [compound 59, 1-(2-Methoxyethyl)-3-methyl-5-phenylbiuret] | 1/4 | 4/4 | 25% |  | inhibition in vivo at 100 mg/kg ([2]; 100 mg/kg oral, mice): 25% |
| CN(C(=O)NCCO)C(=O)Nc1ccccc1 [compound 56, 1-(2-Hydroxyethyl)-3-methyl-5-phenylbiuret] |  | 0/4 | 37.5% | 62.5% | inhibition in vivo at 100 mg/kg [3, 4]: 42% |
| CN(C(=O)NCC(=O)O)C(=O)Nc1ccccc1 [compound 60, 1-Carboxymethyl-3-methyl-5-phenylbiuret] |  | 0/4 | 25% |  | inhibition in vivo at 100 mg/kg ([2]; 100 mg/kg oral, mice): 25% |
| CN(C(=O)NCC(O)CO)C(=O)Nc1ccccc1 (centres unmarked) [compound 58, 1-(2,3-Dihydroxypropyl)-3-methyl-5-phenylbiuret] |  | 0/4 | 37.5% | 37.5% |  |
